# Source: PubChem BioAssay (NCI)
# Values joined by “and” are separate entries in the source; they are usually repeats but may differ in a detail not shown here. Equal values may be shown once.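 Exposure lasted 48 hours, with cells grown in 96-well plates and compounds tested at five concentrations. GI50 marks 50% less growth. TGI marks complete inhibition of growth.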 *1 amine or outer side, *2 acyl side, *3 side chain or, on linkers, in order; H or OH if unused. Where a SMILES comes first, the peptide text is derived from it. Bridges are numbered along the chain shown (N, C = ends). [ ]: non-standard residue; d: D form. ξ: configuration not given here. X4 = CCC(C)C(N[*:1])C(O)CC(=O)O[C@H](C(=O)C(C)C(=O)[*:2])C(C)C; NMeY = CN[C@@H](Cc1ccc(O)cc1)C(=O)O; ξNMeL = CNC(CC(C)C)C(=O)O; ξT = CC(O)C(N)C(=O)O
# How the values were obtained:
# Assay in all cases: inhibition of tumour cell growth, NCI panel, 48 h
# A498 renal = system: A498 renal
# ACHN renal = system: ACHN renal
# EKVX NSCLC = system: EKVX NSCLC
# MDA-MB-231 breast = system: MDA-MB-231 breast
# MDA-MB-435 = system: MDA-MB-435
# SK-MEL-5 melanoma = system: SK-MEL-5 melanoma
# SN12C renal = system: SN12C renal
# UACC-257 melanoma = system: UACC-257 melanoma
# HOP-92 NSCLC = system: HOP-92 NSCLC
# RXF 393 renal = system: RXF 393 renal
Structure (SMILES),TGI (A498 renal),TGI (ACHN renal),TGI (EKVX NSCLC),TGI (MDA-MB-231 breast) [µM],TGI (MDA-MB-435) [µM],TGI (SK-MEL-5 melanoma) [µM],TGI (SN12C renal) [µM],TGI (UACC-257 melanoma),TGI (HOP-92 NSCLC) [µM],TGI (RXF 393 renal) [µM],GI50 (A498 renal) [µM],GI50 (SK-MEL-5 melanoma) [µM],GI50 (ACHN renal) [µM],GI50 (HOP-92 NSCLC) [µM],GI50 (MDA-MB-231 breast) [µM],GI50 (RXF 393 renal) [µM],GI50 (UACC-257 melanoma) [µM]
O=C(O)c1ccccc1/C=N\NC1=NCCCCN1,> 100 µM,> 100 µM,> 100 µM,> 100,> 100,> 100,> 100,> 100 µM,,,,,,,,,
CSC1SCC2C(=O)N(C)C3(CC3C)C(=O)OCC(NC(=O)c3nc4ccccc4cc3O)C(=O)NC(C)C(=O)N(C)C1C(=O)N(C)C1(CC1C)C(=O)OCC(NC(=O)c1nc3ccccc3cc1O)C(=O)NC(C)C(=O)N2C (stereo not drawn),< 0.0001 µM,> 100 µM,0.648 µM and 0.0992 µM,,< 0.0001,,,< 0.0001 µM,< 0.0001,< 0.0001,,,,,,,
COc1c/c(=C2/C=c3ccccc3=N2)[nH]/c1=C/c1[nH]c(C)cc1C,4.31 µM,,,,,0.0835,,,,,0.267,0.0304,,,,,
O=C(/C=C/c1ccc([N+](=O)[O-])cc1)c1nc2ccccc2[nH]1,3.99 µM,> 100 µM,> 100 µM,> 57.2,> 100,> 100,> 100,31.4 µM,> 100,> 100,,,,,,,
Cc1ccc2c(c1)OC1Nc3ccccc3C1=C2O (stereo not drawn),45.5 µM,60.8 µM,86.9 µM,69.4,95.9,34,93.4,69.3 µM,> 100,72.4,,,,,,,
O=C(N=Nc1ccccc1Br)NNc1ccccc1Br,> 100 µM,> 100 µM,,> 100,> 100,> 100,> 100,> 100 µM,,,,,,,,,
O=C(NNC(=S)Nc1ccccc1)c1csc(NC(=S)NC2CCCCC2)n1,> 100 µM,> 100 µM,> 100 µM,> 100,> 100,38.8,> 100,56.8 µM,> 100,,,,,,,,
O=C1OS2(OCc3cccc4cccc2c34)c2ccccc21 (stereo not drawn),> 100 µM,> 100 µM,> 100 µM,> 100,> 100,> 100,> 100,> 100 µM,> 100,,,,,,,,
O=C(c1ccco1)N(C(=S)OCc1ccccn1)c1ccccc1,> 100 µM,> 100 µM,> 100 µM,> 100,> 100,> 100,> 100,> 100 µM,,> 100,,,,,,,
CCC(C)C1NC(=O)C(NC(=O)C(CC(C)C)N(C)C(=O)[C@@H]2CCCN2)C(C)OC(=O)[C@H](Cc2ccc(OC)cc2)N(C)C(=O)[C@@H]2CCCN2C(=O)[C@H](CC(C)C)NC(=O)C(C)C(=O)[C@H](C(C)C)OC(=O)CC1O (stereo partly drawn) (H-P[ξNMeL][ξT][X4]LP[NMeY](Me); ester 3-C),0.0372 µM and 0.15 µM,0.0352 µM and 0.156 µM,0.0474 µM,,0.0032,0.00748,,0.00814 µM and 0.0465 µM,0.0187,,,,,,,,
O=C1NC(N/N=C\c2ccccc2)=N/C1=C/c1ccc(Cl)cc1,,30 µM,67.4 µM,> 100,> 100,43.9,54.6,> 100 µM,,47.3,,,,,,,
NC(CCCCNC(=O)OCc1ccccc1)C(=O)NC(CCCCNC(=O)OCc1ccccc1)C(=O)ON1C(=O)CCC1=O (stereo not drawn),> 100 µM,> 100 µM,> 100 µM,> 100,,> 100,> 100,> 100 µM,> 100,> 100,,,,,,,
CCCCCCCCCCCCCCCCNc1nc(=O)n(C2CC(O)C(CO)O2)cc1F (stereo not drawn),,11.9 µM,30.9 µM,43.3,24.6,48.1,26.9,33.9 µM,25.1,28.4,,,,,,,
NC(=O)CC(Nc1ncc2c(n1)-c1ccccc1OC2)C(=O)O (stereo not drawn),,> 100 µM,> 100 µM,> 100,> 100,> 100,> 100,> 100 µM,> 100,> 100,,,,,,,
CC(C)(C)OC(=O)N1C(OP(=O)(Oc2ccccc2)Oc2ccccc2)=COc2cccnc21,,> 100 µM,> 100 µM,> 100,> 100,35.5,> 100,> 100 µM,92.5,> 100,,,,,,,
O=[As](O)(O)c1cc(N=Nc2ccc(-c3ccc(N=Nc4cc([As](=O)(O)O)c(O)cc4O)cc3)cc2)c(O)cc1O,> 73.4 µM,> 100 µM,> 100 µM,,,> 100,> 100,> 100 µM,> 100,> 100,,,,,,,
CSc1nncc(-c2cc3c(c(SC)n2)CCC3)n1,,> 100 µM,> 100 µM,> 100,> 100,> 100,> 100,> 100 µM,,> 100,,,,,,,
O=C(NCCNCCO)N/N=C/c1ccc(Cl)cc1,> 100 µM,> 100 µM,,> 100,> 100,> 100,> 100,> 100 µM,,,,,,,,,
CCOC(=O)C(Cc1ccccc1)(Cc1ccc(O)cn1)NC(=O)c1ccccc1 (stereo not drawn),,> 100 µM,> 100 µM,99.6,30.1,36.6,,95 µM,59.1,> 100,,,,,,,
CC[N+](CC)=c1ccc2nc3c(cc(N)c4ccccc43)oc-2c1,,1.72 µM,,1.73,,0.27,,3.05 µM,0.497,0.319,,0.125,0.412,0.19,0.363,0.173,1.56
N#Cc1c2c(c(N3CCOCC3)n3c1nc1ccccc13)CCCC2,34.5 µM,31.3 µM,35.9 µM,54.7,39.7,37,45.8,65.9 µM,38.8,,,,,,,,
CN1C2CC(=O)CC1[C@@H]1OC(c3ccccc3)O[C@H]21 (stereo partly drawn),,,> 100 µM,> 100,> 100,> 100,> 100,> 100 µM,,> 100,,,,,,,
CCOC(=O)C(C(=O)Cc1ccccc1)c1ccccc1 (stereo not drawn),,> 100 µM,> 100 µM,,,> 100,> 100,> 100 µM,> 100,,,,,,,,
COc1cc(C2C3=C(COC3=O)OC(C)(C)Oc3cc4c(cc32)OCO4)cc(OC)c1OC (stereo not drawn),1.49 µM,> 100 µM,> 100 µM,> 100,0.5,2.33,> 100,> 100 µM,> 100,,,,,,,,
